# Assay results reported in patent publication EP0079167A1, “A carbapenem compound, preparation and use” (BEECHAM GROUP PLC, priority 1981, dated 1983).
# Like-named read-outs stand apart in the source and are kept apart here.
# Key:
# [1] = Tissue stability in human kidney (HPLC); assay type: in vitro ADME; settings: stability relative to MM13902 taken as standard (1.0), values >1.0 = fold increase in stability
# Description: (§1) A preparation of 2% mouse kidney homogenate was mixed with equal volumes of a 200 µg/ml solution of the antibiotic to be tested. The stability of the antibiotic at 37 °C was studied by removal of aliquots and subjecting them to a high pressure liquid chromatographic analysis. The values are given in figures relative to that obtained for MM13902 of U.K. Patent No. 1489235. The values are given in figures relative to that obtained for MM13902 which is taken as standard (1.0). Values greater than 1.0 reflect the fold increase in stability relative to MM13902.
# [2] = Tissue stability in mouse kidney homogenate (HPLC); assay type: in vitro ADME; settings: 37°C, stability relative to MM13902 taken as standard (1.0), values >1.0 = fold increase in stability
# Description: as §1
# [3] = tested on: Klebsiella aerogenes; assay: Antibacterial activity in vitro (MIC); assay type: cell-based
# [4] = tested on: Staphylococcus aureus; assay: Antibacterial activity in vitro (MIC); assay type: cell-based
# [5] = tested on: Escherichia coli; assay: Antibacterial activity in vitro (MIC); assay type: cell-based
# [6] = tested on: E. coli E96R+; assay: Antibacterial activity in vivo against experimental mouse infection; settings: Escherichia coli, read-out: CD50
# Description: (§2) CD50 mg/kg (total dose) - Compounds dosed at 1 and 5 hours past infection.
# [7] = tested on: Staph. aureus Smith; assay: as above; settings: Staphylococcus aureus; mouse infection with Staph. aureus Smith; total dose; dosed at 1 and 5 hours past infection; read-out: CD50 (the source's name)
# Description: as §2
# [8] = Klebsiella aerogenes VA2R+ (printed Va2R+ for Compound B)
# [9] = Escherichia coli Ba78R+, read-out: MIC
# [10] = Escherichia coli JT4R+, read-out: MIC
smiles,measurement,setting,value
CC(=O)N/C=C/SC1=C(C(=O)O)N2C(=O)[C@@H]([C@H](C)OS(=O)(=O)O)[C@H]2C1 [MM13902],Tissue Stability Values,[1],1.0
same,Tissue Stability Values,[2],1.0
C[C@H](O)[C@@H]1C(=O)N2C(C(=O)O)=C(S/C=C\C(=O)OCCN)C[C@H]12 [Compound A],MIC,[3]; Klebsiella aerogenes 185R+,3.1 µg/mL
same,MIC,[3]; Klebsiella aerogenes 192R+,6.2 µg/mL
same,MIC,[3]; Klebsiella aerogenes Ba95R+,6.2 µg/mL
same,MIC,[3]; [8],25 µg/mL
same,MIC,"[4]; ATCC25923, Staphylococcus aureus ATCC 25923",0.1 µg/mL
same,MIC,[4]; Staphylococcus aureus 68/8484,0.2 µg/mL
same,MIC,[4]; Staphylococcus aureus 150+,0.2 µg/mL
same,MIC,[4]; Staphylococcus aureus MB9+,0.2 µg/mL
same,MIC,[4]; Staphylococcus aureus N36MR,0.4 µg/mL
same,MIC,[4]; Staphylococcus aureus N71MR,0.8 µg/mL
same,MIC,[4]; Staphylococcus aureus Smith,0.2 µg/mL
same,MIC,[4]; Staphylococcus aureus T71+,0.1 µg/mL
same,MIC,[4]; Staphylococcus aureus T100,0.2 µg/mL
same,MIC,[5],0.8 µg/mL
same,MIC,[5]; [9],1.6 µg/mL
same,MIC,[5]; [10],6.2 µg/mL
same,MIC,"[5]; Escherichia coli JT20R+, read-out: MIC",6.2 µg/mL
same,ED50,[6],66 mg/kg
same,ED50,[7],4.5 mg/kg
same,Tissue Stability Values,[1],1.2
same,Tissue Stability Values,[2],1.3
"C[C@@H](O)[C@H]1C(=O)N2C(C(=O)O)=C(S/C=C\C(=O)OCCN)C[C@H]12 [Compound B, (5R.6S)-3-[(Z)-2-(2-aminoethyloxycarbonyl)ethenylthio]-6-[(R)-1-hydroxyethyl]-7-oxo-1-azabicyclo[3.2.0]hept-2-ene-2-carboxylic acid]",MIC,[3]; Klebsiella aerogenes Ba95R+,0.4 µg/mL
same,MIC,[3]; Klebsiella aerogenes Du185R,0.2 µg/mL
same,MIC,[3]; Klebsiella aerogenes Du192R,0.2 µg/mL
same,MIC,[3]; [8],0.4 µg/mL
same,MIC,[4]; Staphylococcus aureus MANSTK 33269,0.4 µg/mL
same,MIC,[4]; Staphylococcus aureus T2p-,0.1 µg/mL
same,MIC,[4]; Staphylococcus aureus T97p+,0.1 µg/mL
same,MIC,[4]; Staphylococcus aureus T100p-,0.02 µg/mL
same,MIC,[4]; Staphylococcus aureus T118p+,0.05 µg/mL
same,MIC,[4]; Staphylococcus aureus T120p-,0.02 µg/mL
same,MIC,[5]; [9],0.1 µg/mL
same,MIC,[5]; [10],0.1 µg/mL
same,MIC,"[5]; Escherichia coli JT56R+, read-out: MIC",0.2 µg/mL
same,MIC,"[5]; Escherichia coli JT177R, read-out: MIC",0.2 µg/mL
same,ED50,[6],13 mg/kg
same,ED50,[7],< 0.4 mg/kg
same,Tissue Stability Values,[1],2.2
same,Tissue Stability Values,[2],2.4
C[C@H](O)[C@H]1C(=O)N2C(C(=O)O)=C(S/C=C\C(=O)OCCN)C[C@H]12 [Compound C],MIC,[3]; Klebsiella aerogenes A,3.1 µg/mL
same,MIC,[4]; Staphylococcus aureus 1517,6.2 µg/mL
same,MIC,[4]; Staphylococcus aureus Russell,0.4 µg/mL
same,MIC,"[5]; Escherichia coli JT39, read-out: MIC",3.1 µg/mL
